Values quoted from earlier work in US10912819B2, “Neuroprotective peptides derived from activity-dependent neuroprotective protein for treatment of neurological diseases” (priority 2016, dated 2021).
Read-outs that look alike come from different tables or passages of the source.

Experiments:
[1] = not told; cited from earlier work
[2] = test system: rabbits; details: cited from earlier work
[3] = test system: cornea; details: Kusano et al. 2010; cited from earlier work
[4] = ambient temperatures and atmospheric pressures, cited from earlier work

Row | Compound | extent of permeation increase by preservative [1] | permeation in vitro in the presence of preservatives [1] | skin irritation ([2]; rabbit skin, 24 hour exposure) | signs of toxicity ([2]; rabbit, in vivo, 2000 mg/kg) | acute dermal LD50 ([2]; rabbits) | mortality ([2]; single dermal application of 2000 mg/kg) | effect on corneal permeability [3] | period of stability ([4]; Anhydrous) | period of stability ([4]; Hemihydrate) | effect on cell survival [3]
1 | NC(=O)CC[C@@H]1NC(=O)[C@H](Cc2ccccc2)NC(=O)[C@H](Cc2ccc(O)cc2)NC(=O)CCSSC[C@@H](C(=O)N2CCC[C@H]2C(=O)N[C@H](CCCN=C(N)N)C(=O)NCC(N)=O)NC(=O)[C@H](CC(N)=O)NC1=O [DDAVP, desmopressin acetate] | chlorobutanol<benzalkonium<sorbate | always increased | – | – | – | – | – | – | – | –
2 | CC(C)(O)C(Cl)(Cl)Cl [chlorobutanol, trichloro-2-methyl-2-propanol] | – | – | Non-irritant | no signs of toxicity | greater than 2000 mg/kg | 10% | not chlorobutanol affect corneal permeability | 3 years | 5 years | –
3 | benzalkonium chloride | – | – | – | – | – | – | affect corneal permeability | – | – | adversely affected cell survival
